Patent US10695366B2 (ZS PHARMA, INC., priority 2013, dated 2020)

System: beagles
Conditions: dog, in vivo
Protocol: The following 14-day study is designed to show the effect of particle size and particle form on the urinary pH and presence of crystals in the urine. The compounds above are administered to beagles orally by mixing with wet dog food. The regimen is administered 3 times a day at 6 hour intervals over a 12 hour period in the following manner:
The dose levels were 100 or 600 mg/kg/dose.

## microporous zirconium silicate [ZS-9]
  test article-related findings (direct or indirect), microscopic: not present
